From patent publication US5563155A, “Individual stereosiomers of 7-[3-(aminoalkyl)-1-pyrrolidinyl]-quinolones and naphthyridones as antibacterial agents” (Warner-Lambert Company, priority 1995, dated 1996)
In brackets after ≈: the same amount, converted by molar mass. Counter-ions that a name gives are not always drawn. Like-named read-outs stand apart in the source and are kept apart here.

Experiments:
Strep. pyogenes C-203 [1] = test: in vitro antibacterial activity, microtitration dilution (MIC), Strep. pyogenes C-203; type: cell-based; conditions: Streptococcus pyogenes, C203, read-out: minimum inhibiting concentration (MIC)
Text: (§1) The in vitro antibacterial activity, is obtained by the microtitration dilution method as described in Heifetz, et al., Antimicr. Agents & Chemother., 6, 124 (1974), which is incorporated herein by reference.
(§2) By use of the above methods, the following minimum inhibiting concentration values (MICs in μg/mL), PD50 's in mg/kg, no effect phototoxicity dose in mg/kg and the cytotoxicity IC50 in μg/mL were obtained for representative enantiomers of the invention and compounds of the prior art as shown in the table.

Esch. coli Vogel = test: in vitro antibacterial activity, microtitration dilution (MIC), Esch. coli Vogel; type: cell-based; conditions: Escherichia coli, read-out: minimum inhibiting concentration (MIC)
Text: as §1, §2

Ent. cloacae MA2646 = test: in vitro antibacterial activity, microtitration dilution (MIC), Ent. cloacae MA2646; type: cell-based; conditions: Enterobacter cloacae, read-out: minimum inhibiting concentration (MIC)
Text: as §1, §2

Strep. faecalis MGH-2 = test: in vitro antibacterial activity, microtitration dilution (MIC), Strep. faecalis MGH-2; type: cell-based; conditions: Enterococcus faecalis, MGH2, read-out: minimum inhibiting concentration (MIC)
Text: as §1, §2

Staph. aureus UC-76 = test: in vitro antibacterial activity, microtitration dilution (MIC), Staph. aureus UC-76; type: cell-based; conditions: Staphylococcus aureus, UC76, read-out: minimum inhibiting concentration (MIC)
Text: as §1, §2

Staph. aureus H 228 = test: in vitro antibacterial activity, microtitration dilution (MIC), Staph. aureus H 228; type: cell-based; conditions: Staphylococcus aureus, H228, read-out: minimum inhibiting concentration (MIC)
Text: as §1, §2

Klebs. pneumoniae MGH-2 = test: in vitro antibacterial activity, microtitration dilution (MIC), Klebs. pneumoniae MGH-2; type: cell-based; conditions: Klebsiella pneumoniae, MGH2, read-out: minimum inhibiting concentration (MIC)
Text: as §1, §2

Pseud. aeruginosa UI-18 = test: in vitro antibacterial activity, microtitration dilution (MIC), Pseud. aeruginosa UI-18; type: cell-based; conditions: Pseudomonas aeruginosa, UI18, read-out: minimum inhibiting concentration (MIC)
Text: as §1, §2

Strep. pyogenes C-203 [2] = test: median protective dose in mice given lethal systemic infections, Strep. pyogenes C-203; type: in vivo; conditions: Streptococcus pyogenes, single dose at time of challenge, read-out: median protective dose (PD50)
Protocol: The in vivo activity is obtained when the compounds are tested according to the procedure of Miller, et al (Proc. Soc. Exp. Biol. Med. 57, 261, 1944). The median protective dose (PD50) was determined in mice given lethal systemic infections. Single doses of compound were given at time of challenge.
as §2
The in vivo data as PD50 s are reported below the line of MICs for the same compound.

Strep. pheumoniae SV-1 = test: in vitro antibacterial activity, microtitration dilution (MIC), Strep. pneumoniae SV-1; type: cell-based; conditions: Streptococcus pneumoniae, SV1, read-out: minimum inhibiting concentration (MIC)
Text: as §1, §2

Prot. rettgeri M 1771 = test: in vitro antibacterial activity, microtitration dilution (MIC), Prot. rettgeri M 1771; type: cell-based; conditions: Providencia rettgeri, M1771, read-out: minimum inhibiting concentration (MIC)
Text: as §1, §2

SMILES	MIC (Strep. pyogenes C-203 [1])	MIC (Esch. coli Vogel)	MIC (Ent. cloacae MA2646)	MIC (Strep. faecalis MGH-2)	MIC (Staph. aureus UC-76)	MIC (Staph. aureus H 228)	MIC (Klebs. pneumoniae MGH-2)	MIC (Pseud. aeruginosa UI-18)	ED50 (Strep. pyogenes C-203 [2]; C203, PO)	ED50 (Strep. pyogenes C-203 [2]; C203, SC)	MIC (Strep. pheumoniae SV-1)	MIC (Prot. rettgeri M 1771)
CCN[C@@H](C)[C@@H]1CCN(c2nc3c(cc2F)c(=O)c(C(=O)O)cn3C2CC2)C1 [Example 78, 3R,1S-1-cyclopropyl-7-[3-[1-(ethylamino)ethyl]-1-pyrrolidinyl]-6-fluoro-1,4-dihydro-4-oxo-1,8-naphthyridine-3-carboxylic acid]	0.05 µg/mL (≈ 0.129 µM)	0.1 µg/mL (≈ 0.257 µM)	0.4 µg/mL (≈ 1.03 µM)	0.05 µg/mL (≈ 0.129 µM)	0.025 µg/mL (≈ 0.0644 µM)	0.05 µg/mL (≈ 0.129 µM)	0.2 µg/mL (≈ 0.515 µM)	1.6 µg/mL (≈ 4.12 µM)	6 mg/kg	4 mg/kg	0.025 µg/mL (≈ 0.0644 µM)	1.6 µg/mL (≈ 4.12 µM)
C[C@H](N)[C@@H]1CCN(c2c(F)cc3c(=O)c(C(=O)O)cn(C4CC4)c3c2C(F)(F)F)C1 [Example 60, 3R,1S-7-[3-(1-aminoethyl)-1-pyrrolidinyl]-1-cyclopropyl-6-fluoro-1,4-dihydro-4-oxo-8-trifluoromethyl-3-quinolinecarboxylic acid]	0.006 µg/mL (≈ 0.014 µM)	0.2 µg/mL (≈ 0.468 µM)	0.2 µg/mL (≈ 0.468 µM)	0.025 µg/mL (≈ 0.0585 µM)	0.006 µg/mL (≈ 0.014 µM)	0.013 µg/mL (≈ 0.0304 µM)	0.2 µg/mL (≈ 0.468 µM)	1.6 µg/mL (≈ 3.74 µM)			0.006 µg/mL (≈ 0.014 µM)	0.4 µg/mL (≈ 0.936 µM)
CN[C@@H](C)[C@@H]1CCN(c2cc3c(c(C)c2F)c(=O)c(C(=O)O)cn3C2CC2)C1 [Example 67, 3R,1S-1-cyclopropyl-6-fluoro-1,4-dihydro-5-methyl-7-[3-[1-(methylamino)ethyl]-1-pyrrolidinyl]-4-oxo-3-quinolinecarboxylic acid, monohydrochloride]	0.025 µg/mL		0.4 µg/mL	0.1 µg/mL	0.013 µg/mL	0.05 µg/mL	0.8 µg/mL	3.1 µg/mL	29 mg/kg	3 mg/kg	0.013 µg/mL	1.6 µg/mL
CCN[C@@H](C)[C@H]1CCN(c2nc3c(cc2F)c(=O)c(C(=O)O)cn3C2CC2)C1 [Example 80, 3S,1S-1-cyclopropyl-7-[3-[1-(ethylamino)ethyl]-1-pyrrolidinyl]-6-fluoro-1,4-dihydro-4-oxo-1,8-naphthyridine-3-carboxylic acid]	0.4 µg/mL (≈ 1.03 µM)	0.2 µg/mL (≈ 0.515 µM)	0.2 µg/mL (≈ 0.515 µM)	0.2 µg/mL (≈ 0.515 µM)	0.1 µg/mL (≈ 0.257 µM)	0.2 µg/mL (≈ 0.515 µM)	0.4 µg/mL (≈ 1.03 µM)	3.1 µg/mL (≈ 7.98 µM)			0.1 µg/mL (≈ 0.257 µM)	1.6 µg/mL (≈ 4.12 µM)
COc1c(N2CC[C@@H]([C@@H](C)N)C2)c(F)cc2c(=O)c(C(=O)O)cn(C3CC3)c12 [Example 45, 3R,1R-7-[3-(1-aminoethyl)-1-pyrrolidinyl]-1-cyclopropyl-6-fluoro-1,4-dihydro-8-methoxy-4-oxo-3-quinolinecarboxylic acid]	0.013 µg/mL (≈ 0.0334 µM)	0.05 µg/mL (≈ 0.128 µM)	0.05 µg/mL (≈ 0.128 µM)	0.025 µg/mL (≈ 0.0642 µM)	≤ 0.03 µg/mL	0.25 µg/mL (≈ 0.642 µM)	0.1 µg/mL (≈ 0.257 µM)	0.8 µg/mL (≈ 2.05 µM)			0.013 µg/mL (≈ 0.0334 µM)	0.2 µg/mL (≈ 0.514 µM)
C[C@@H](N)[C@@H]1CCN(c2nc3c(cc2F)c(=O)c(C(=O)O)cn3-c2ccc(F)cc2F)C1 [Example 48, 3R,1R-7-[3-(1-aminoethyl)-1-pyrrolidinyl]-1-(2,4-difluorophenyl)-6-fluoro-1,4-dihydro-1,8-naphthyridine-3-carboxylic acid]	0.05 µg/mL (≈ 0.116 µM)	0.1 µg/mL (≈ 0.231 µM)	0.1 µg/mL (≈ 0.231 µM)	0.1 µg/mL (≈ 0.231 µM)	0.025 µg/mL (≈ 0.0578 µM)	0.1 µg/mL (≈ 0.231 µM)	0.2 µg/mL (≈ 0.463 µM)	1.6 µg/mL (≈ 3.7 µM)	9 mg/kg	3 mg/kg	0.05 µg/mL (≈ 0.116 µM)	0.4 µg/mL (≈ 0.925 µM)
CCOc1c(N2CC[C@@H]([C@H](C)N)C2)c(F)cc2c(=O)c(C(=O)O)cn(C3CC3)c12 [Example 49, 3R,1S-7-[3-(1-aminoethyl)-1-pyrrolidinyl]-1-cyclopropyl-8-ethoxy-6-fluoro-1,4-dihydro-4-oxo-3-quinolinecarboxylic acid]	0.006 µg/mL (≈ 0.0149 µM)	0.1 µg/mL (≈ 0.248 µM)	0.2 µg/mL (≈ 0.496 µM)	0.025 µg/mL (≈ 0.062 µM)	≤ 0.003 µg/mL	0.013 µg/mL (≈ 0.0322 µM)	0.2 µg/mL (≈ 0.496 µM)	1.6 µg/mL (≈ 3.97 µM)			0.006 µg/mL (≈ 0.0149 µM)	0.2 µg/mL (≈ 0.496 µM)
